# Data as given in patent US12590062B2, “PD-1/PD-L1 inhibitors” (Gilead Sciences, Inc., priority 2017, dated 2026).
# pEC50: −log10 of the molar value.
# Molecular target: T1, PD-1/PD-L1 interaction (Homo sapiens, UniProt Q9NZQ7)
# T1 construct: expressed in transfected cells; host or cells: CHO cells (aAPC-PD-L1) co-cultured with Jurkat cells overexpressing PD-1 and an NFAT-luciferase reporter
# Experiment: PD-1/PD-L1 NFAT reporter co-culture assay
# Assay type: cell-based
# Settings: Jurkat PD-1 NFAT-luciferase cells co-cultured with aAPC-PD-L1 CHO cells, 6 hrs at 37° C.; read-out: EC50 NFAT Luciferase
# Method: PD-1/PD-L1 NEAT Reporter Assay:
# Compounds were tested in afunctional co-culture reporter assay in which TCR-mediated NFAT activity is inhibited by the engagement of PD-1 with PD-L1. […] CHO cells expressing surface-bound anti-CD3 antibodies and PD-L1 (artificial antigen presenting cells, aAPC-PD-L1) were first seeded overnight. Jurkat cells overexpressing PD-1 and expressing a luciferase construct under NFAT control are diluted in RPMI assay medium (RPMI 1640 with 2% FBS), mixed with compounds, and immediately seeded on the monolayer of aAPC-PD-L1. The co-culture is then incubated for 6 hrs at 37° C. Luciferase activity is assessed by adding the ONE-Glo reagent and measuring luminescence with a plate reader. EC50 values are calculated from the fit of the dose-response curves to a four-parameter equation (Table 3).
# T1 sequence (Q9NZQ7 19-290): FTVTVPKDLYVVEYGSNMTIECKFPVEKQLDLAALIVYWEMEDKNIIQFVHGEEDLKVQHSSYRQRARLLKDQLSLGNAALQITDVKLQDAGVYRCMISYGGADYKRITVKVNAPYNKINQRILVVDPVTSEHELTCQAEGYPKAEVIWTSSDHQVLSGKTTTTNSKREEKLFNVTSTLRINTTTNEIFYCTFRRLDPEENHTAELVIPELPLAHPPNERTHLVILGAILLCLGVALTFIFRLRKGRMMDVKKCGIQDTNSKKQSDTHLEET
row,Structure (SMILES),pEC50
1,"COc1nc(OCc2cccc(-c3cccc(COc4nc(OC)c(CNC(C)C(=O)N(C)C)cc4Cl)c3C)c2C)c(Cl)cc1CNC(C)C(=O)N(C)C (centres unmarked) [Example 83, 2,2′-((((((2,2′-dimethyl-[1,1′-biphenyl]-3,3′-diyl)bis(methylene))bis(oxy))bis(5-chloro-2-methoxypyridine-6,3-diyl))bis(methylene))bis(azanediyl))bis(N,N-dimethylpropanamide)]",5.77
2,"COc1nc(OCc2cccc(-c3cccc(COc4nc(OC)c(CNC56CC(C(=O)O)(C5)C6)cc4Cl)c3C)c2C)c(Cl)cc1CNC12CC(C(=O)O)(C1)C2 [Example 85, 3,3′-((((((2,2′-dimethyl-[1,1′-biphenyl]-3,3′-diyl)bis(methylene))bis(oxy))bis(5-chloro-2-methoxypyridine-6,3-diyl))bis(methylene))bis(azanediyl))bis(bicyclo[1.1.1]pentane-1-carboxylic acid)]",5.01
3,"COc1nc(OCc2cccc(-c3cccc(COc4nc(OC)c(CN[C@H](C(=O)O)c5ccccc5)cc4Cl)c3C)c2C)c(Cl)cc1CN[C@H](C(=O)O)c1ccccc1 [Example 86, (2S,2′S)-2,2′-((((((2,2′-dimethyl-[1,1′-biphenyl]-3,3′-diyl)bis(methylene))bis(oxy))bis(5-chloro-2-methoxypyridine-6,3-diyl))bis(methylene))bis(azanediyl))bis(2-phenylacetic acid)]",≤ 4.30
4,"CNC(=O)[C@H](C)NCc1cc(Cl)c(OCc2cccc(-c3cccc(COc4nc(OC)c(CN[C@@H](C)C(=O)NC)cc4Cl)c3C)c2C)nc1OC [Example 88, (2S,2′S)-2,2′-((((((2,2′-dimethyl-[1,1′-biphenyl]-3,3′-diyl)bis(methylene))bis(oxy))bis(5-chloro-2-methoxypyridine-6,3-diyl))bis(methylene))bis(azanediyl))bis(N-methylpropanamide)]",5.38
5,"Cc1c(COc2cc(OCc3cncc(C#N)c3)c(CN[C@@H](C)C(=O)O)cc2Cl)cccc1-c1cccc(-c2ccc(OCCN[C@@H](C)C(=O)O)c(C(F)(F)F)c2)c1C [Example 95, (4-((4″-(2-(((S)-1-carboxyethyl)amino)ethoxy)-2,2′-dimethyl-3″-(trifluoromethyl)-[1,1′:3′,1″-terphenyl]-3-yl)methoxy)-5-chloro-2-((5-cyanopyridin-3-yl)methoxy)benzyl)-L-alanine]",6.19
6,"COc1nc(OCc2cccc(-c3cccc(COc4nc(OC)c(CN[C@@H](C)C(N)=O)cc4Cl)c3C)c2C)c(Cl)cc1CN[C@@H](C)C(N)=O [Example 101, (2S,2′S)-2,2′-((((((2,2′-dimethyl-[1,1′-biphenyl]-3,3′-diyl)bis(methylene))bis(oxy))bis(5-chloro-2-methoxypyridine-6,3-diyl))bis(methylene))bis(azanediyl))dipropanamide]",5.74
7,"COc1nc(O[C@H]2CCc3c(-c4cccc(-c5ccc(OCCNCCO)cc5)c4C)cccc32)ccc1CNCC(=O)O [Example 102, (S)-((6-((4-(4′-(2-((2-hydroxyethyl)amino)ethoxy)-2-methyl-[1,1′-biphenyl]-3-yl)-2,3-dihydro-1H-inden-1-yl)oxy)-2-methoxypyridin-3-yl)methyl)glycine]",4.88
8,"COc1nc(OCc2cccc(-c3cccc(COc4nc(OC)c([C@@H]5NCC[C@@H]5C(=O)O)cc4Cl)c3C)c2C)c(Cl)cc1[C@@H]1NCC[C@@H]1C(=O)O [Example 104, (2R,2′R,3S,3′S)-2,2′-((((2,2′-dimethyl-[1,1′-biphenyl]-3,3′-diyl)bis(methylene))bis(oxy))bis(5-chloro-2-methoxypyridine-6,3-diyl))bis(pyrrolidine-3-carboxylic acid)]",≤ 4.30
9,"Cc1c(COc2cc(OCc3cncc(C#N)c3)c(CNC[C@@H](O)CC(=O)O)cc2Cl)cccc1-c1ccc2c(c1)OC(CNC[C@@H](O)CC(=O)O)CO2 (stereo partly drawn) [Example 108, (3S)-4-((4-((3-(3-((((S)-3-carboxy-2-hydroxypropyl)amino)methyl)-2,3-dihydrobenzo[b] [1,4]dioxin-6-yl)-2-methylbenzyl)oxy)-5-chloro-2-((5-cyanopyridin-3-yl)methoxy)benzyl)amino)-3-hydroxybutanoic acid]",4.86
10,"COc1nc(OCc2cccc(-c3cccc(COc4nc(OC)c(CN[C@@H](CCC(N)=O)C(=O)O)cc4Br)c3C)c2C)c(Br)cc1CN[C@@H](CCC(N)=O)C(=O)O [Example 115, (2S,2′S)-2,2′-((((((2,2′-dimethyl-[1,1′-biphenyl]-3,3′-diyl)bis(methylene))bis(oxy))bis(5-bromo-2-methoxypyridine-6,3-diyl))bis(methylene))bis(azanediyl))bis(5-amino-5-oxopentanoic acid)]",≤ 4.30

# Results, then the compound that gave them:
row,pEC50,Structure (SMILES)
1,≤ 4.30,"COc1nc(OCc2cccc(-c3cccc(COc4nc(OC)c(CNC5(C(=O)O)COC5)cc4Cl)c3C)c2C)c(Cl)cc1CNC1(C(=O)O)COC1 [Example 87, 3,3′-((((((2,2′-dimethyl-[1,1′-biphenyl]-3,3′-diyl)bis(methylene))bis(oxy))bis(5-chloro-2-methoxypyridine-6,3-diyl))bis(methylene))bis(azanediyl))bis(oxetane-3-carboxylic acid)]"
2,6.17,"COC(=O)[C@@H](C)NCc1cc(Cl)c(OCc2cccc(-c3cccc(COc4nc(OC)c(CN[C@H](C)C(=O)OC)cc4Cl)c3C)c2C)nc1OC [Example 89, Dimethyl 2,2′-((((((2,2′-dimethyl-[1,1′-biphenyl]-3,3′-diyl)bis(methylene))bis(oxy))bis(5-chloro-2-methoxypyridine-6,3-diyl))bis(methylene))bis(azanediyl))(2R,2′R)-dipropionate]"
3,6.04,"COc1nc(OCc2cccc(-c3cccc(COc4nc(OC)c(CNC(C)(C)C(=O)O)cc4Cl)c3C)c2C)c(Cl)cc1CN [Example 96, 2-(((6-((3′-(((5-(aminomethyl)-3-chloro-6-methoxypyridin-2-yl)oxy)methyl)-2,2′-dimethyl-[1,1′-biphenyl]-3-yl)methoxy)-5-chloro-2-methoxypyridin-3-yl)methyl)amino)-2-methylpropanoic acid]"
4,7.55,"COc1nc(OCc2cccc(-c3cccc(COc4nc(OC)c(CNC(C)(C)C(=O)O)cc4Cl)c3C)c2C)c(Cl)cc1CNC(C)(C)C(=O)O [Example 97, 2,2′-((((((2,2′-dimethyl-[1,1′-biphenyl]-3,3′-diyl)bis(methylene))bis(oxy))bis(5-chloro-2-methoxypyridine-6,3-diyl))bis(methylene))bis(azanediyl))bis(2-methylpropanoic acid)]"
5,7.15,"COc1nc(OCc2cccc(-c3cccc(COc4nc(OC)c(CN[C@@H](C)C(=O)O)cc4Cl)c3C)c2C)c(Cl)cc1CN[C@@H](C)C(=O)O [Example 98, (2S,2′S)-2,2′-((((((2,2′-dimethyl-[1,1′-biphenyl]-3,3′-diyl)bis(methylene))bis(oxy))bis(5-chloro-2-methoxypyridine-6,3-diyl))bis(methylene))bis(azanediyl))dipropionic acid]"
6,6.80,"CC[C@@H](NCc1cc(Cl)c(OCc2cccc(-c3cccc(COc4nc(OC)c(CN[C@H](CC)C(=O)O)cc4Cl)c3C)c2C)nc1OC)C(=O)O [Example 99, (2R,2′R)-2,2′-((((((2,2′-dimethyl-[1,1′-biphenyl]-3,3′-diyl)bis(methylene))bis(oxy))bis(5-chloro-2-methoxypyridine-6,3-diyl))bis(methylene))bis(azanediyl))dibutyric acid]"
7,6.32,"COC(=O)[C@H](C)NCc1cc(Cl)c(OCc2cccc(-c3cccc(COc4nc(OC)c(CN[C@@H](C)C(=O)OC)cc4Cl)c3C)c2C)nc1OC [Example 100, Dimethyl 2,2′-((((((2,2′-dimethyl-[1,1′-biphenyl]-3,3′-diyl)bis(methylene))bis(oxy))bis(5-chloro-2-methoxypyridine-6,3-diyl))bis(methylene))bis(azanediyl))(2S,2′S)-dipropionate]"
8,4.83,"COc1nc(O[C@H]2CCc3c(-c4cccc(-c5ccc(OCCNC[C@@H](O)CC(=O)O)cc5)c4C)cccc32)ccc1CNCC(=O)O [Example 103, (S)-4-((2-((3′-((S)-1-((5-(((carboxymethyl)amino)methyl)-6-methoxypyridin-2-yl)oxy)-2,3-dihydro-1H-inden-4-yl)-2′-methyl-[1,1′-biphenyl]-4-yl)oxy)ethyl)amino)-3-hydroxybutanoic acid]"
9,≤ 4.30,"C=CCOC(=O)[C@H]1CCN[C@H]1c1cc(Cl)c(OCc2cccc(-c3cccc(COc4nc(OC)c([C@@H]5NCC[C@@H]5C(=O)O)cc4Cl)c3C)c2C)nc1OC [Example 105, (2R,3S)-2-(6-((3′-(((5-((2R,3S)-3-((allyloxy)carbonyl)pyrrolidin-2-yl)-3-chloro-6-methoxypyridin-2-yl)oxy)methyl)-2,2′-dimethyl-[1,1′-biphenyl]-3-yl)methoxy)-5-chloro-2-methoxypyridin-3-yl)pyrrolidine-3-carboxylic acid]"
10,4.46,"Cc1c(-c2ccc(OCCNC[C@H](O)CC(=O)O)cc2)cccc1-c1cccc(-c2ccc(OCCNC[C@H](O)CC(=O)O)cc2)c1C [Example 107, (3R,3′R)-4,4′-((((2′,2″-dimethyl-[1,1′:3′,1″:3″,1′″-quaterphenyl]-4,4′″-diyl)bis(oxy))bis(ethane-2,1-diyl))bis(azanediyl))bis(3-hydroxybutanoic acid)]"
